Usually melting point stands for the temperature of the solid-liquid transition.

In turn, `Cc1ccc(S(=O)(=O)NC(=O)OCCc2ccc(-n3c(C4CCCCC4)nc4c(C)nc(C)cc43)cc2)cc1` yielded a melting point of 168 °C.

Consider `COCCNC(=O)c1cccc(-c2c(F)ccc3cc(Cc4cccc(C(F)(F)F)c4)sc23)c1`, for which the melting point is 116 to 117 °C.

For `CSCC(=O)c1ccc(O)c(O)c1`, the melting point was 107 °C.

With `O=Cc1ccc(OC(F)F)c2oc3ccncc3c12`, the melting point was in the range of 215 to 217 °C.

`COC(=O)c1nc(-c2nccs2)cc(NC(C)=O)c1Cl` displayed a melting point of 187 to 188 °C.

In the case of `CCCN(Cc1cccc(C(=N)N)c1)C(=O)Nc1ccc(-c2ccccc2S(=O)(=O)NC(C)(C)C)cc1`, the melting point fell in the range of 201 to 202 °C.

Take `COc1cc(Nc2nccc(-c3c[nH]c4ccccc34)n2)cc(OC)c1OC`: the melting point amounted to 197 °C.

`CCCCCCCCCN=C=O` yielded a melting point of 104 to 105 °C.

For `CCSCc1cnn(-c2c(Cl)cc(C(F)(F)F)cc2Cl)n1`, the melting point was in the range of 53 to 54 °C.

In the case of `COc1c(C)c(N2CCN(c3ccc(OC(F)F)cc3)CC2)c(C)c2c1OC(C)(C)C2`, the melting point was in the range of 151 to 152 °C.

Turning to `COC1=NS(=O)N=C1NCCCCC#CCN(C)C` (configuration not stated), the melting point is 154 to 155 °C.

In the case of `CCOc1cc(-c2cc(C(F)F)n3ncc(C(=O)O)c3n2)ccc1C(F)(F)F`, the melting point came out at 247 °C.

Compound `Cc1nn(C)c(C)c1C(=O)Nc1cccc2c1C(C)CC2(C)C` (configuration not stated) returned a melting point of 176 °C.

Compound `CS(=O)(=O)N(Cc1cncnc1)c1ccc(F)cc1F` showed a melting point of 142 to 145 °C.

Take `CNC(=O)N(OC(=O)NC(C)(C)C)C(C)=O`: the melting point fell in the range of 142 to 144 °C.

The compound `CS(=O)(=O)c1cc(C(=O)O)cc(NCc2ccccc2)c1Cl` returned a melting point of 254 to 256 °C.

Regarding `N#Cc1c(N2CCN(Cc3ccccc3)CC2)nn2c(-c3ccncc3)ccnc12`, the melting point lay within 193 to 194 °C.

`CC(=N)NS(=O)(=O)C=Cc1ccc(Cl)cc1` registered a melting point of 161 to 163 °C.

In turn, `CC(C)(C)OC(=O)NCCCCn1c(-c2ccccc2)cc2ccc(C(=O)c3cc(CC(=O)O)c(-c4ccccc4)s3)cc21` gave a melting point of 167 to 169 °C.

The compound `CCC(C)(C)c1ccc(OCCCNC(=O)c2cc(OS(=O)(=O)CCCOc3ccc(N)cc3)c3ccccc3c2O)c(C(C)(C)CC)c1` yielded a melting point of 125 to 126 °C.

The compound `NC(=O)Nc1ccc(CCOCc2ccccc2-c2ccccc2)cc1` yielded a melting point of 143 to 144 °C.

Turning to `O=C(Nc1ccc(C(=O)N2CCc3sc(Cc4ccccn4)nc3-c3ccccc32)cc1)c1ccccc1-c1ccccc1`, the melting point is 215 to 218 °C.

Turning to `C=CCCCN(CCCC=C)Cc1noc(-c2ncn3c2CN(C)C(=O)c2ccccc2-3)n1`, the melting point was in the range of 167 to 169 °C.

In turn, `O=C(O)COc1ccc2cc(-c3cnc(Cc4ccccc4)o3)ccc2c1` gave a melting point of 236 to 238 °C.

On to `Cc1ccncc1C(N)=S`, for which the melting point is 104 to 106 °C.

In turn, `COC(=O)N1CCC[C@@H](OC)[C@@H]1CC(=O)Cn1cnc2ccc(C(F)(F)F)cc2c1=O` (relative stereo) registered a melting point of 137 to 140 °C.

`O=C(CC(CNS(=O)(=O)c1ccc(Oc2ccccc2)cc1)c1ccc(Cl)cc1)Nc1ccc(C(=O)O)cc1` (configuration not stated) displayed a melting point of 119 to 121 °C.

Take `Oc1cc2[nH]c3c(O)c(O)ccc3c2cc1O`: the melting point was more than 280 °C.

In turn, `CC(C)(C)c1cc(CC2SC(=S)NC2=O)cc(C(C)(C)C)c1O` (configuration not stated) gave a melting point of 178 to 179 °C.

For the compound `CC(=O)C1CCC2C3CCC4CC(O)C(N5CCOC(c6ccccc6)(c6ccccc6)C5)CC4(C)C3C(=O)CC12C` (configuration not stated), the melting point is 248 to 250 °C.

Turning to `O=C(O)c1cn(-c2ccc(F)cc2)c2c(F)c(N3CCC(n4ccnn4)C3)c(F)cc2c1=O` (configuration not stated), the melting point came to 303 °C.

Turning to `COc1ccc(C)cc1NC(=O)Nc1ccc(N2CCNCC2)cc1`, the melting point is 140 °C.

Consider `Cc1cc(C)c(N)c(C(N)=O)c1`, for which the melting point was in the range of 162 to 167 °C.

Turning to `OC(c1cccnc1)c1c[nH]c2ccc(F)cc12` (configuration not stated), the melting point lay in the range of 131 to 133 °C.

In turn, `Cc1cc(C(=O)O)c(O)cc1C(N)C(=O)O` (configuration not stated) showed a melting point of more than 250 °C.

The compound `CCCc1nc(C)n2nc(C(=O)OCC)nc2c1Cc1ccc(-c2ccccc2C#N)cc1` showed a melting point of 108 °C.

In the case of `CN1CCC(Oc2cnccn2)(c2ccccc2)CC1`, the melting point lay in the range of 115 to 116 °C.

Take `COc1ccc2c(c1)C1(CO2)C(=O)N(C)c2ccccc21` (configuration not stated): the melting point was 159 to 161 °C.

For the compound `CCC(=S)NC[C@H]1CN(c2ccc(N3CCN(C(=O)COc4ccccc4)CC3)c(F)c2)C(=O)O1`, the melting point fell in the range of 171 to 172 °C.

With `O=C(N1CCCC1)N1Cc2c(-c3noc(C4CC4)n3)ncn2-c2cccc(F)c21`, the melting point was 220 to 222 °C.

`CCCCCCCC(CC(=O)O)CC(=O)O`: the melting point lay in the range of 43 to 44 °C.

Take `COc1cc(OC)nc(NC(=O)NS(=O)(=O)c2ncccc2C(CF)OC(C)=O)n1` (configuration not stated): the melting point lay in the range of 145 to 147 °C.

`CS(=O)(=O)c1ccc(-c2cnn(CC(F)(F)F)c(=O)c2OCCN2CCCCC2)cc1` displayed a melting point of 117 to 118 °C.

`O=C(Cc1csc(-c2cccc(O)c2)n1)NC1C(=O)N2C(C(=O)OC(c3ccccc3)c3ccccc3)=CCSC12` (configuration not stated) had a melting point of 152 to 154 °C.

With `CN(C)CCN(C(=O)c1ccc([N+](=O)[O-])cc1Br)c1ccnc2cc3c(cc12)OCO3`, the melting point lay within 111 to 112 °C.

`CCOC(=O)C(N)=NOC(=O)c1ccc(F)cc1` gave a melting point of 196 to 198 °C.

For `N=c1sc2cc(OC(F)(F)F)ccc2n1CCS(=O)c1ccccc1` (racemic), the melting point stood at 210 °C.

In turn, `C=C1CC2CC(O)CCC2(C)C2CC(O)C3(C)C(C(C)CCC(=O)O)CCC3C12` (configuration not stated) registered a melting point of 199 to 202 °C.

For the compound `C#CCOc1c(CO)ccc2ccccc12`, the melting point lay in the range of 65 to 68 °C.

The compound `CC(=O)NC[C@H]1CN(c2ccc(N3CCC4(CC3)CSCO4)c(F)c2)C(=O)O1` returned a melting point of 114 to 116 °C.

The compound `COc1ccc(Nc2nc3cc4c(cc3[nH]2)NC(=O)C4(C)C)cc1` returned a melting point of 286 to 288 °C.

As for `Cc1cccc(C)c1CNc1cc(CO)cc2c1nc(C)n2C`, the melting point fell in the range of 245 to 246 °C.

`COc1ccc2c(c1)C(=O)CC1(CCN(SCCc3cc(=O)n(C)c(=O)n3C)CC1)O2` registered a melting point of 191 to 194 °C.

As to `CCOC(=O)c1cc(-c2nccs2)[nH]c1C(CC1CCOCC1)c1ccc(S(=O)(=O)C2CC2)cc1` (configuration not stated), the melting point fell in the range of 178 to 179 °C.

`O=C(O)Cc1nn(Cc2nc3cc(C(F)(F)F)ccc3s2)c(=O)c2nccnc12` came in with a melting point of 192 to 193 °C.

For the compound `Cc1cc(Nc2ccc(NC(=O)c3ccc(Nc4ccnc5ccc(Cl)cc45)cc3)cc2)nc(N)n1`, the melting point is 250 to 254 °C.

With `CN(CCc1[nH]c2ccccc2c1-c1ccccc1)C(=O)CCl`, the melting point fell in the range of 135 to 138 °C.

On to `CC(NC(=O)C1(Cl)C(C)(C)C1(Cl)Cl)c1ccc(Cl)cc1` (configuration not stated), for which the melting point lay in the range of 138 to 139 °C.

In turn, `CCC(=O)N1C(=O)OC(C)(C)[C@@H]1C` yielded a melting point of 86 °C.

`OCC12CC(c3ccccc31)c1ccccc12` had a melting point of 165 to 166 °C.

For `OC(Cn1cncn1)(Cn1cnc(-c2ccc(F)cc2)n1)c1ccc(C(F)(F)F)cc1F` (configuration not stated), the melting point was in the range of 96 to 100 °C.

Compound `NC(=O)c1ccc(N2CCN(Cc3cn4cc(Cl)ccc4n3)CC2)c(Cl)c1` displayed a melting point of 254 to 256 °C.

The compound `CC1(C)N=C(c2ccccc2F)c2cc(I)ccc2NC1=O` had a melting point of 212 °C.

Regarding `CC1(C)COc2cc(Cl)cc(Cl)c2C(O)(c2ccccn2)C1` (configuration not stated), the melting point is 156 °C.

The compound `CC(C)(C(=O)O)c1cn2nc(CCCN3CCC(OC(c4ccccc4)c4ccccc4)CC3)ccc2n1` came in with a melting point of 195 to 205 °C.

`Cc1c(SCCN2CCOCC2)ccnc1CSc1nc2ccccc2s1`: the melting point was 91 to 93 °C.

`CCCCc1nc2c(N)nc(C)c(C)c2n1NC1CCCCC1` yielded a melting point of 160 to 162 °C.

`CCOC(=O)Cc1ccnc2c(N)cccc12` returned a melting point of 71 to 77 °C.

Compound `O=C(Nc1ncccn1)Nc1cccc2c1C1CCCCN1C2=O` (configuration not stated) gave a melting point of 232 °C.

Turning to `O=S(=O)(c1ccccc1)C(F)(F)C(O)c1ccccc1` (configuration not stated), the melting point lay in the range of 77 to 79 °C.

`O=C(O)CC[C@H](NC(=O)Nc1ccc(N(CCCl)CCCl)cc1)C(=O)O`: the melting point was 116 to 118 °C.

Compound `C#CC1(O)CCC2(C)C(CCC3C4CCC(C(C)=O)C4(C)C=CC32)C1` (configuration not stated) yielded a melting point of 147 to 150 °C.

The compound `CN1C(=O)C(C(=O)Nc2ccc(Cl)c(C(F)(F)F)c2)S(=O)(=O)c2ccc(Cl)cc21` (configuration not stated) had a melting point of 220 to 222 °C.

Consider `Cn1nc(C#N)c(Nc2ccccc2[N+](=O)[O-])n1`, for which the melting point is 144 to 145 °C.

On to `CC(C)(CO)NS(=O)(=O)c1cccc(NC(=O)c2cnn3c(C(F)(F)F)cc(-c4ccc(Cl)c(Cl)c4)nc23)c1`, for which the melting point was 269 °C.

Turning to `Cc1cc(Cl)nc(Cl)c1N`, the melting point is 83 to 85 °C.

`O=P(O)(O)C(O)(Cc1ccc(Cl)cc1)P(=O)(O)O` returned a melting point of 219 °C.

The compound `COc1ccc(Sc2cnc(N)s2)cc1` registered a melting point of 119 to 120 °C.

Take `N#Cc1c(N2CCCCC2)cc(-c2ccc(F)cc2)c2c1Cc1ccccc1-2`: the melting point was in the range of 130 to 132 °C.

Compound `CCn1cc(-c2nnnn2C)c(=O)c2ccccc21` showed a melting point of 170 to 176 °C.

In turn, `CC1(c2ccccc2)Cc2cc(CC(=O)O)c(Cl)c(Cl)c2C1=O` (configuration not stated) gave a melting point of 133 to 135 °C.

Take `O=C(c1ccc(O)cc1)c1sc2ccccc2c1-c1ccccc1`: the melting point was 204 to 205 °C.

`CCOC(=O)Oc1ccc(C=CC(=O)N2CCN(CC(=O)N3CCCC3)CC2)cc1` registered a melting point of 128 to 130 °C.

Turning to `COC(=O)CCc1cc2cc(C(F)(F)F)ccc2n1S(=O)(=O)c1ccccc1`, the melting point is 81 to 83 °C.

`CCOc1nn(-c2ccc(C(F)(F)F)cn2)cc1CCO` gave a melting point of 75 to 76 °C.

Turning to `COc1ccc(C(=O)c2cccc(C#N)c2)cc1`, the melting point lay in the range of 85 to 88 °C.

With `Cc1ccc(Nc2ccc3c4c(cccc24)CC3)cc1`, the melting point lay in the range of 96.2 to 96.8 °C.

Source of the values: a melting point compilation (Tetko et al.; mined from patent text by program, amines drawn as free bases though some values may be those of a salt).
